Test results: PMC5225183, “Fingerprinting of neurotoxic compounds using a mouse embryonic stem cell dual luminescence reporter assay” (Archives of Toxicology, 2016)

How the values were obtained:
ESC-derived neurons = details: for In vitro EC20 in ESC-derived neurons: in vitro toxicity data expressed as EC20
Excerpt: Fig. 1 Synopsis of experimental protocols. The impact of compounds on neural promoter activity (FLuc, Firefly Luciferase under the control of the Tα1 promoter), general promoter activity (RLuc, Renilla Luciferase under the control of the EF1α promoter), and amount of DNA (PI, propidium iodide fluorescence in cell homogenates) was investigated in undifferentiated mouse embryonic pluripotent stem cells (ESCs) and on ESC-derived neurons. Arrows indicate the time of measurement of the three parameters. a Protocol for testing compounds effects on ESCs. CGR8-2Luc cells were plated on gelatin-coated 96-well plates in maintenance medium (BHK21 medium containing 10 % FCS, L-glutamine, NEAA, P/S, and LIF). Twenty-four hours later, cells were exposed to compounds for forty-eight hours. b Protocol for testing compounds on ESC-derived neurons. CGR8-2Luc cells were co-cultured with MS5 cells to induce neural differentiation in DMEM medium containing 15 % KO-serum, NEAA, β-mercaptoethanol, and P/S. On day 5, cells were detached and seeded on polyornithine-coated plates in DMEM medium containing N2 supplement, bFGF, and P/S; compound exposure was from day 6 to day 8
To test compounds on ESC-derived neurons, neuronal differentiation was carried out as previously described (Suter et al. [2009]; Xu et al. [2014]). Briefly, CGR8-2Luc cells were seeded on irradiated bone marrow-derived stromal MS5 cells and cultivated for 4 days in DMEM medium containing 15 % Knock-out™ Serum Replacement, non-essential amino acids, beta-mercaptoethanol, and penicillin/streptomycin. At day 5, cells were then re-plated (3 × 10^5 cells/cm^2) on polyornithine-coated 96-well plates in N2 medium containing DMEM, N2 supplement, penicillin/streptomycin, and 10 ng/ml basic human fibroblast growth factor (bFGF) (Invitrogen). […] To assess toxicity of compounds on undifferentiated pluripotent stem cells (ESCs), CGR8-2Luc cells were plated at 45,000 cells/cm^2 on 0.1 % gelatin-coated dishes in BHK21 medium, supplemented with 10 % fetal calf serum, L-glutamine, non-essential amino acids, penicillin/streptomycin, and leukemia inhibitory factor (LIF). After 24 h, compounds were added and incubated for 48 h, before luciferase expression and PI fluorescence were analyzed. In all experiments, methylmercury was used as a positive control at a concentration of 5 µM.
Luciferase activities were measured with a Dual-Luciferase™ Reporter system kit. CGR8-2Luc ES cells were lysed in 96-well plates according to the manufacturer’s instructions. Luminescence measurements were performed on a Fluostar Optima reader. Luminescence counts were expressed as percentage of promoter activity normalized by comparison with the control wells treated by DMSO. […] parameters were measured in homogenates of ESCs and in ESC-derived neurons: (1) FLuc, reflecting the activity of early neural promoter Tα1. FLuc increases during neuronal differentiation. Many neurotoxic compounds may affect FLuc expression, either through impact on neuronal differentiation, through changes of neuronal gene expression, or through killing of neurons.
After measurement of luciferase activity, DNA quantity was determined by PI assay, as previously described (Xu et al. [2014]). […] After incubation, fluorescence intensity was measured on a Flexstation 3 microplate reader (Excitation: 544 nm ± 15 nm; Emission: 620 nm ± 15 nm). Results are expressed as percentage of control. […]

[1] = PBPK reverse modeling of nominal equivalent concentration (NEC), rat data
Protocol: The lipid content and albumin concentrations of the test media N2 and BHK medium were calculated on the basis of the available information provided by the suppliers (Fig. S2A). The data on rat plasma have been adopted from (Verwei et al. [2006]). The original references are (Barber et al. [1990]) for albumin and (DeJongh et al. [1997]) for lipids. Human plasma values were taken from (Gulden and Seibert [2003]). The original data on albumin are from (Lindup [1987]) and for lipids from (Patterson et al. [1988]). Total protein concentrations were calculated based on the assumption that the protein molar mass is similar to the one of albumin (66 kDa). Albumin was assumed to represent 60 and 48 % of the total serum proteins (mg/ml) in human and rat (Baker et al. [1979]; Busher [1990]) (Fig. S2A).
(a) Developmental toxicity (DT)—inducing concentrations were extrapolated from the in vivo study reported in the document by the Australian Therapeutic Goods Administration (Australian Therapeutic Goods Administration [2014]). […] (b) Toxicokinetic parameters of abiraterone in rats were extracted from the available report from the TGA (Australian Therapeutic Goods Administration [2014]). […] (c) The nominal in vitro concentrations equivalent to the concentration used in vivo were calculated using the value of total protein concentration instead of albumin concentration. […]
(c) The nominal in vitro concentrations equivalent to the concentration used in vivo in rats and humans (Cmax and Cavg) were determined assuming only binding to the specific drug-binding proteins (albumin and/or α1-acid glycoprotein) (Fig. S2D).

plasma protein = details: cited from earlier work; for fb,pl (plasma bound fraction): extracted from the literature (geldanamycin value assumed)
[2] = extracted from the literature; cited from earlier work

Structure (SMILES) | concentration affecting neural differentiation (decrease of neuronal and general promoter activities) (ESC-derived neurons; ESC-derived neurons, no change in cell number) | In vitro EC20 in ESC-derived neurons (ESC-derived neurons) | Free concentration in vivo ([1]; Cavg) | Total concentration in vivo (ECpl) ([1]; Cavg) | Free concentration in vivo ([1]; Cmax) | Total concentration in vivo (ECpl) ([1]; Cmax) | fb,pl (plasma bound fraction) (plasma protein) | percentage of plasma protein binding (plasma protein; without relevant species differences, ref US FDA [2011]) | Kow (octanol:water partition coefficient) [2] | average bound fraction in plasma (plasma protein; ref Russo et al. [2013]) | concentration up to which neurons were not affected (ESC-derived neurons)
C[C@]12CC[C@H](O)CC1=CC[C@@H]1[C@@H]2CC[C@]2(C)C(c3cccnc3)=CC[C@@H]12 [Abiraterone] | higher than 0.5 µM | 700 nM | 1.68e-05 nM | 0.00401 µM | 0.00013 nM | 0.0309 µM | 0.998 | 99.8% | 131826 |  | 
C/C(O)=C(\C#N)C(=O)Nc1ccc(C(F)(F)F)cc1 [Teriflunomide] |  | 10000 to 20000 nM | 11.7 nM | 5.09 µM | 25.6 nM | 11.1 µM | 0.995 |  | 327 | 99.46% | 
COC1=C2C[C@@H](C)C[C@H](OC)[C@H](O)[C@@H](C)/C=C(\C)[C@H](OC(N)=O)[C@@H](OC)/C=C\C=C(/C)C(=O)NC(=CC1=O)C2=O [Geldanamycin] |  | 1 nM |  |  | 8.91 nM | 2.23 µM | 0.990 |  | 417 |  | 
[Br][Hg][Br] [Mercury bromide] |  |  |  |  |  |  |  |  |  |  | 5000 nM
